System: human umbilical vein endothelial cells (HUVEC)
Assay: HUVEC proliferation assay (VEGF-stimulated, MTT);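 for % inhibition of the proliferation of HUVEC: relative to VEGF-stimulated control minus starvation-medium baseline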
Type: cell-based
Conditions: for % inhibition of the proliferation of HUVEC / % inhibition: crude reaction mixtures; for % inhibition: Library III, HUVEC proliferation, nominal concentration of 0.5 nM
Description: HUVEC Proliferation Assay
This assay determines the ability of a test compound to inhibit the growth factor-stimulated proliferation of human umbilical vein endothelial cells (“HUVEC”). HUVEC cells (passage 3-4, Clonetics, Corp.) were thawed into EGM2 culture medium (Clonetics Corp) in T75 flasks. Fresh EGM2 medium was added to the flasks 24 hours later. Four or five days later, cells were exposed to another culture medium (F12K medium supplemented with 10% fetal bovine serum (FBS), 60 μg/mL endothelial cell growth supplement (ECGS), and 0.1 mg/mL heparin). Exponentially-growing HUVEC cells were used in experiments thereafter. Ten to twelve thousand HUVEC cells were plated in 96-well dishes in 100 μl of rich, culture medium (described above). The cells were allowed to attach for 24 hours in this medium. The medium was then removed by aspiration and 105 μl of starvation media (F12K+1% FBS) was added to each well. After 24 hours, 15 μl of test agent dissolved in 1% DMSO in starvation medium or this vehicle alone was added into each treatment well; the final DMSO concentration was 0.1%. One hour later, 30 μl of VEGF (30 ng/mL) in starvation media was added to all wells except those containing untreated controls; the final VEGF concentration was 6 ng/mL. Cellular proliferation was quantified 72 hours later by MTT dye reduction, at which time cells were exposed for 4 hours MTT (Promega Corp.).
For screening compound library plates, one or two concentrations (one well per concentration) were employed, and the % inhibition was calculated by the following formula:
% inhibition=(control−test)÷(control−starvation)
% inhibition=(control-treated)/(control-starvation)×100

[1] = Library II, Y=S, 0.5 mM (column head; text: nominal 0.5 nM)
[2] = Library II, Y=S, 2 mM (column head; text: nominal 2 nM)
[3] = Library I, Y = CO, nominal concentration of 10 nM
[4] = Library I, Y = NH, nominal concentration of 10 nM
[5] = Library I, Y = O, nominal concentration of 10 nM

O=C(NCCN1CCCCC1)c1ccccc1Sc1ccc2c(/C=C/c3ccccn3)n[nH]c2c1
% inhibition of the proliferation of HUVEC [1]: 5%
% inhibition of the proliferation of HUVEC [2]: 19%

O=C(NCCN1CCNC1=O)c1ccccc1Sc1ccc2c(/C=C/c3ccccn3)n[nH]c2c1
% inhibition of the proliferation of HUVEC [1]: 5%
% inhibition of the proliferation of HUVEC [2]: 1%

Cc1ccc2ccccc2c1NC(=O)c1ccccc1Sc1ccc2c(/C=C/c3ccccn3)n[nH]c2c1
% inhibition: −19%

Cc1oc(NC(=O)c2ccccc2Sc2ccc3c(/C=C/c4ccccn4)n[nH]c3c2)c(C#N)c1C
% inhibition: 13%

O=C(Nc1cccc(C(=O)c2ccc3c(/C=C/c4ccccn4)n[nH]c3c2)c1)Oc1ccccc1 [Example 41(cc), 6-[3-(Phenoxyamindo)benzoyl]-3-E-[2-(pyridin-2-yl)ethenyl]-1H-indazole]
IC50 (Homo sapiens, HUVEC, read-out: HUVEC + albumin IC50): > 100 nM

O=C(NCCCN1CCOCC1)c1ccccc1Sc1ccc2c(/C=C/c3ccccn3)n[nH]c2c1
% inhibition of the proliferation of HUVEC [1]: 5%
% inhibition of the proliferation of HUVEC [2]: 14%

CC(C)CC(CO)NC(=O)c1ccccc1Sc1ccc2c(C=Cc3ccccn3)n[nH]c2c1 (centres unmarked) [drawing 1015]
% inhibition (0.0005 µM): −13%

NC(=O)C1CCN(C(=O)c2ccc3c(-c4nc5ccccc5[nH]4)n[nH]c3c2)CC1
% inhibition of the proliferation of HUVEC [3]: 44%
% inhibition of the proliferation of HUVEC [4]: 5%
% inhibition of the proliferation of HUVEC [5]: 82%

Cc1cc(NC(=O)c2ccccc2Sc2ccc3c(/C=C/c4ccccn4)n[nH]c3c2)n[nH]1
% inhibition: 11%

O=C(Nc1ncc([N+](=O)[O-])s1)c1ccccc1Sc1ccc2c(/C=C/c3ccccn3)n[nH]c2c1
% inhibition: −15%

O=C(Nc1cccc2cc(O)ccc12)c1ccccc1Sc1ccc2c(/C=C/c3ccccn3)n[nH]c2c1
% inhibition: −22%

CS(=O)(=O)NNC(=O)c1ccccc1Sc1ccc2c(/C=C/c3ccccn3)n[nH]c2c1
% inhibition of the proliferation of HUVEC [1]: 9%
% inhibition of the proliferation of HUVEC [2]: 1%

O=C(NCc1ccc(F)c(F)c1)c1ccccc1Sc1ccc2c(/C=C/c3ccccn3)n[nH]c2c1
% inhibition: 0%

O=C(NCc1ccc(Cl)cc1)c1ccccc1Sc1ccc2c(/C=C/c3ccccn3)n[nH]c2c1
% inhibition: 4%

O=C(Nc1ncnc2[nH]cnc12)c1ccc2c(-c3nc4ccccc4[nH]3)n[nH]c2c1 [drawing 600]
% inhibition of the proliferation of HUVEC [3]: 27%
% inhibition of the proliferation of HUVEC [4]: −9%
% inhibition of the proliferation of HUVEC [5]: 52%

O=C(Nc1ccc2c(c1)OCO2)c1ccccc1Sc1ccc2c(/C=C/c3ccccn3)n[nH]c2c1
% inhibition: 9%

O=C(Nc1nc(O)nc2[nH]ncc12)c1ccccc1Sc1ccc2c(/C=C/c3ccccn3)n[nH]c2c1
% inhibition: −43%

O=C(NC1CCSC1=O)c1ccccc1Sc1ccc2c(/C=C/c3ccccn3)n[nH]c2c1 (centres unmarked) [drawing 1141]
% inhibition: −8%

CC1CCC(NC(=O)c2ccccc2Sc2ccc3c(/C=C/c4ccccn4)n[nH]c3c2)CC1 (centres unmarked)
% inhibition of the proliferation of HUVEC [1]: −11%
% inhibition of the proliferation of HUVEC [2]: 42%

O=C(NC1CCS(=O)(=O)C1)c1ccccc1Sc1ccc2c(/C=C/c3ccccn3)n[nH]c2c1 (centres unmarked)
% inhibition of the proliferation of HUVEC [1]: 27%
% inhibition of the proliferation of HUVEC [2]: 2%

O=C(NCC1(O)CCCCC1)c1ccccc1Sc1ccc2c(/C=C/c3ccccn3)n[nH]c2c1 [drawing 688]
% inhibition of the proliferation of HUVEC [1]: 26%
% inhibition of the proliferation of HUVEC [2]: −19%

O=C(NCCCO)c1ccc2c(-c3nc4ccccc4[nH]3)n[nH]c2c1
% inhibition of the proliferation of HUVEC [3]: 5%
% inhibition of the proliferation of HUVEC [4]: 16%
% inhibition of the proliferation of HUVEC [5]: 25%

COC(=O)c1sccc1NC(=O)c1ccccc1Sc1ccc2c(/C=C/c3ccccn3)n[nH]c2c1
% inhibition: 2%

O=C(NCCCN1CCCC1=O)c1ccccc1Sc1ccc2c(/C=C/c3ccccn3)n[nH]c2c1
% inhibition of the proliferation of HUVEC [1]: 25%
% inhibition of the proliferation of HUVEC [2]: 35%

O=C(NCCc1cccc(F)c1)c1ccccc1Sc1ccc2c(/C=C/c3ccccn3)n[nH]c2c1
% inhibition: 4%

O=C(Nc1ncc(Cl)s1)c1ccccc1Sc1ccc2c(/C=C/c3ccccn3)n[nH]c2c1
% inhibition: −29%

CCCCOc1ccc(NC(=O)c2ccccc2Sc2ccc3c(/C=C/c4ccccn4)n[nH]c3c2)cc1
% inhibition: −6%

CCOCCNC(=O)c1ccccc1Sc1ccc2c(/C=C/c3ccccn3)n[nH]c2c1 [drawing 732]
% inhibition of the proliferation of HUVEC [1]: 53%
% inhibition of the proliferation of HUVEC [2]: 75%

COc1cccc(NC(=O)c2ccccc2Sc2ccc3c(/C=C/c4ccccn4)n[nH]c3c2)c1
% inhibition: 11%

COc1ccc(CCNC(=O)c2ccccc2Sc2ccc3c(/C=C/c4ccccn4)n[nH]c3c2)cc1
% inhibition: 10%

CCOC(=O)N1CCC(NC(=O)c2ccccc2Sc2ccc3c(/C=C/c4ccccn4)n[nH]c3c2)CC1
% inhibition: −24%

O=C(NO)c1ccccc1Sc1ccc2c(/C=C/c3ccccn3)n[nH]c2c1
% inhibition of the proliferation of HUVEC [1]: 7%
% inhibition of the proliferation of HUVEC [2]: 25%

CCCCN(CCCC)CCNC(=O)c1ccccc1Sc1ccc2c(/C=C/c3ccccn3)n[nH]c2c1
% inhibition: 1%

O=C(Nc1cccnc1Cl)c1ccccc1Sc1ccc2c(/C=C/c3ccccn3)n[nH]c2c1
% inhibition: 2%

O=C(NCCCN1CCCCC1)c1ccccc1Sc1ccc2c(/C=C/c3ccccn3)n[nH]c2c1
% inhibition of the proliferation of HUVEC [1]: 16%
% inhibition of the proliferation of HUVEC [2]: 7%

O=C(Nc1nc[nH]c1[N+](=O)[O-])c1ccccc1Sc1ccc2c(/C=C/c3ccccn3)n[nH]c2c1
% inhibition: 7%

C=CCN1CCN(C(=O)c2ccc3c(-c4nc5ccccc5[nH]4)n[nH]c3c2)CC1
% inhibition of the proliferation of HUVEC [3]: 39%
% inhibition of the proliferation of HUVEC [4]: −4%

O=C(Nc1ccc2cn[nH]c2c1)c1ccc2c(-c3nc4ccccc4[nH]3)n[nH]c2c1
% inhibition of the proliferation of HUVEC [3]: 0%
% inhibition of the proliferation of HUVEC [4]: 2%
% inhibition of the proliferation of HUVEC [5]: 4%

O=C(NCCc1ccncc1)c1ccccc1Sc1ccc2c(/C=C/c3ccccn3)n[nH]c2c1
% inhibition of the proliferation of HUVEC [1]: 18%
% inhibition of the proliferation of HUVEC [2]: 22%

CCCCOCCCNC(=O)c1ccccc1Sc1ccc2c(/C=C/c3ccccn3)n[nH]c2c1
% inhibition: −12%

CSc1cccc(NC(=O)c2ccccc2Sc2ccc3c(/C=C/c4ccccn4)n[nH]c3c2)c1
% inhibition: 8%

COCCCNC(=O)c1ccccc1Sc1ccc2c(/C=C/c3ccccn3)n[nH]c2c1
% inhibition of the proliferation of HUVEC [1]: 26%
% inhibition of the proliferation of HUVEC [2]: 31%

CC(NC(=O)c1ccccc1Sc1ccc2c(/C=C/c3ccccn3)n[nH]c2c1)c1ccc(Cl)cc1 (centres unmarked)
% inhibition: 14%

O=C(NC1CCCc2ccccc21)c1ccccc1Sc1ccc2c(/C=C/c3ccccn3)n[nH]c2c1 (centres unmarked)
% inhibition: 1%

O=C(Nc1ccc(Cl)nc1)c1ccccc1Sc1ccc2c(/C=C/c3ccccn3)n[nH]c2c1
% inhibition: 2%

O=C(Nc1ccccc1O)c1ccccc1Sc1ccc2c(/C=C/c3ccccn3)n[nH]c2c1
% inhibition: 13%

NC(=O)c1ccc(NC(=O)c2ccccc2Sc2ccc3c(/C=C/c4ccccn4)n[nH]c3c2)nc1
% inhibition: −2%

O=C(Nc1cc(O)[nH]n1)c1ccccc1Sc1ccc2c(/C=C/c3ccccn3)n[nH]c2c1
% inhibition: −17%

CCCCCCNC(=O)c1ccccc1Sc1ccc2c(/C=C/c3ccccn3)n[nH]c2c1
% inhibition of the proliferation of HUVEC [1]: 21%
% inhibition of the proliferation of HUVEC [2]: 90%

O=C(NN1CCCC1)c1ccccc1Sc1ccc2c(/C=C/c3ccccn3)n[nH]c2c1
% inhibition of the proliferation of HUVEC [1]: 17%
% inhibition of the proliferation of HUVEC [2]: 23%
